Measured values reported in US9751885B2, “Cyclopropanamine compound and use thereof” (Takeda Pharmaceutical Company Limited, priority 2012, dated 2017).
pIC50: −log10 of the molar value. Structures can show the parent of a compound that is named as a salt. Where two headings read alike, the source gives them in different places.

What was measured:
[1] = molecular target: human LSD1(172-833) (Homo sapiens (Human), UniProt O60341); assay: Measurement of LSD1 inhibitory activity (time-resolved fluorescence, biotin-histone H3 mono methylated K4 peptide); format: biochemical
Outline: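 Remaining signal detected by TR-FRET after 60 min with europium anti-histone H3 antibody and streptavidin-XL665 in potassium fluoride/0.1% BSA.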

[2] = molecular target: MAO-A enzyme (Homo sapiens (Human), UniProt P21397); assay: Measurement of MAO-A inhibitory activity (MAO-Glo Assay); format: biochemical
Experimental: The MAO-A inhibitory activity evaluation described below followed the protocol of MAO-Glo (registered trademark) Assay of Promega KK.
A test compound dissolved in 4% DMSO was added by 12.5 μL to 25 μL reaction solution (100 mM HEPES (pH 7.5), 5% glycerol) containing 400 ng of MAO-A enzyme (Sigma-Aldrich Co. LLC.), and the mixture was reacted at room temperature for 10 min. […] After reaction at room temperature for 60 min, Luciferine detection reagent (Promega KK) (50 μL) was added to terminate the reaction. After reaction at room temperature for min with stirring, the luminescence was measured by Envision (PerkinElmer). The MAO-A inhibitory rate (%) of the test compound was calculated by the following formula. inhibitory rate(%)=(1−(test compound count−blank)÷(control−blank))×100
The count of the MAO-A enzyme reaction mixture under compound non-addition conditions is indicated as control, and the count under compound non-addition and MAO-A enzyme non-addition conditions is indicated as blank.

[3] = test system: white blood cell number, red blood cell number, platelet number; assay: Evaluation of blood cell number in mouse; format: in vivo; details: oral, Day 2 after administration
Experimental: Evaluation of Blood Cell Number in Mouse
(§1) Male ICR mice (hereinafter mice) were acclimated for at least one week in a rearing facility. The mice were raised in a rearing room with controlled temperature and humidity under a 12:12 hour light-dark cycle, and allowed free ingestion of feed and water.
The compounds were suspended in 0.5% methylcellulose/0.02% citric acid/distilled water and orally administered. All compounds were administered to the mice at a dose of 1 mg/kg, 10 mg/kg, 50 mg/kg or 100 mg/kg (body weight). On Day 2 after the administration of the compound, the whole blood was collected.
Using Sysmex XT-1800i (Sysmex Corporation), the white blood cell number, red blood cell number, and platelet number in the collected whole blood per unit volume were measured. The influence of each compound on each blood cell number was determined by comparing the number with the mean of each blood cell number of the mouse without administration of the compound (control group), and the numerical value of each blood cell number of a mouse with the administration of the compound is shown in percentage. percentage (%) of blood cell number of compound administration group as compared to control group=(mean blood cell number of compound administration group mean blood cell number of compound non-administration group)×100

[4] = Evaluation of hippocampal distribution in mouse; format: in vivo; details: male ICR mice, 10 mg/kg oral
Experimental: Evaluation of Hippocampal Distribution in Mouse
as §1
The compounds were suspended in 0.5% methylcellulose/0.02% citric acid/distilled water and orally administered. All compounds were administered to the mice at a dose of 10 mg/kg (body weight).
Blood samples were collected at 0.5 hr, or 1 hr, or 1.5 hr from compound administration, and the hippocampus was isolated simultaneously. The plasma concentration and hippocampus concentration of each test compound were measured by the LC/MS/MS method, the ratio (hippocampus/plasma concentration ratio) was calculated, and distribution into hippocampus was evaluated.

[5] = molecular target: MAO-B enzyme (Homo sapiens (Human), UniProt P27338); assay: Measurement of MAO-B inhibitory activity (MAO-Glo Assay); details: read-out: MAO-B IC50 value;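 further: luminescence read-out, compound preincubated 10 min with enzyme then reacted 60 min at room temperature, inhibition relative to enzyme reaction without compound, blank lacking enzyme and compound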
Experimental: The MAO-B inhibitory activity evaluation described below followed the protocol of MAO-Glo (registered trademark) Assay of Promega KK.
A test compound dissolved in 4% DMSO was added by 12.5 μL to 25 μL reaction solution (100 mM HEPES (pH 7.5), 5% glycerol, 10% DMSO) containing 400 ng of MAO-B enzyme (Sigma-Aldrich Co. LLC.), and the mixture was reacted at room temperature for 10 min. […] After reaction at room temperature for 60 min, Luciferine detection reagent (Promega KK) (50 μL) was added to terminate the reaction. After reaction at room temperature for 20 min with stirring, the luminescence was measured by Envision (PerkinElmer). The MAO-B inhibitory rate (%) of the test compound was calculated by the following formula. inhibitory rate(%)=(1−(test compound count−blank)÷(control−blank))×100
The count of the MAO-B enzyme reaction mixture under compound non-addition conditions is indicated as control, and the count under compound non-addition and MAO-B enzyme non-addition conditions is indicated as blank.

[6] = hippocampus, 0.5 hr after administration, read-out: hippocampus concentration (mean)
[7] = plasma, 0.5 hr after administration, read-out: plasma concentration (mean)
[8] = hippocampus, 1 hr after administration, read-out: hippocampus concentration (mean)
[9] = plasma, 1 hr after administration, read-out: plasma concentration (mean)

Chain of MAO-B enzyme (P27338 whole entry): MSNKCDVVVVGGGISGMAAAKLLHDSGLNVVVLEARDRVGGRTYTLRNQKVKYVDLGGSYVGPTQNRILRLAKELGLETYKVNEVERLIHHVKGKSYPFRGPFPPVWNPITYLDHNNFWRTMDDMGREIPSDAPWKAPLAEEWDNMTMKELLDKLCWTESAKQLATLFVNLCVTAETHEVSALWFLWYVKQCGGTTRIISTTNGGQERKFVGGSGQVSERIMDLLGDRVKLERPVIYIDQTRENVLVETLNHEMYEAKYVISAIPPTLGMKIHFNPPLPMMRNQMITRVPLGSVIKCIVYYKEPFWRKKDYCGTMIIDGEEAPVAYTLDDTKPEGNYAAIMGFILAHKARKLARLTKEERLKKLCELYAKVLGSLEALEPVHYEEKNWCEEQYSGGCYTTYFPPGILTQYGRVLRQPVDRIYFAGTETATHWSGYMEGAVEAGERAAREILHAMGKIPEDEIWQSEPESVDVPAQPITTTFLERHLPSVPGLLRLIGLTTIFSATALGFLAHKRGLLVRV
Chain of MAO-A enzyme (P21397 whole entry): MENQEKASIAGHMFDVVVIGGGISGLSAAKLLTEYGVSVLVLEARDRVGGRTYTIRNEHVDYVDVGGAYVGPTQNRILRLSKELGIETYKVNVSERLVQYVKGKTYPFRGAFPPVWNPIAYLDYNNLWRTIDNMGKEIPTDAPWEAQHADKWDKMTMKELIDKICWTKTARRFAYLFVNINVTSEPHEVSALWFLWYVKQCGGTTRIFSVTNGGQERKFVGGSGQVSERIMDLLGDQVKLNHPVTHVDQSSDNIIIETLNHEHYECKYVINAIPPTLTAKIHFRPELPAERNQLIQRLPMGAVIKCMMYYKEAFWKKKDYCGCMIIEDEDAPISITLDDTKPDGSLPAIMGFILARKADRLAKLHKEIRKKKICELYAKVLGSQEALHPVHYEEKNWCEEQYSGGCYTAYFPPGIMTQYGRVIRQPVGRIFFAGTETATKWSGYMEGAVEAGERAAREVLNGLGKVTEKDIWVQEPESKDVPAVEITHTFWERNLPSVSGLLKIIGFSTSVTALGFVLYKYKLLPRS

Compound | pIC50 [1] | pIC50 [2] | platelet number, percentage of compound administration group compared to control group, mean ([3]; 10 mg/kg) [%] | red blood cell number, percentage of compound administration group compared to control group, mean ([3]; 10 mg/kg) [%] | white blood cell number, percentage of compound administration group compared to control group, mean ([3]; 10 mg/kg) [%] | platelet number, percentage of compound administration group compared to control group, mean ([3]; 100 mg/kg) [%] | red blood cell number, percentage of compound administration group compared to control group, mean ([3]; 100 mg/kg) [%] | white blood cell number, percentage of compound administration group compared to control group, mean ([3]; 100 mg/kg) [%] | concentration at 0.5 h [4, 6] [ng/g] | concentration at 0.5 h [4, 7] [ng/mL] | pIC50 [5] | concentration at 1 h [4, 8] [ng/g] | Kp at 1 h ([4]; hippocampus/plasma, 1 hr after administration, read-out: hippocampus/plasma concentration ratio (mean)) | concentration at 1 h [4, 9] [ng/mL] | Kp at 0.5 h ([4]; hippocampus/plasma, 0.5 hr after administration, read-out: hippocampus/plasma concentration ratio (mean))
Cc1ncc(NC(=O)c2cccc([C@@H]3C[C@H]3NCC3CC3)c2)s1 (relative stereo) [Example 79, 3-(trans-2-((cyclopropylmethyl)amino)cyclopropyl)-N-(2-methyl-1,3-thiazol-5-yl)benzamide dihydrochloride] | > 7.00 | < 5.00 | 92.4 | 101.1 | 122.4 | 92.8 | 101.6 | 96.3 | 569 | 759 | < 5.00 |  |  |  | 
Cc1cc(NC(=O)c2cccc([C@@H]3C[C@H]3NCC3CCOCC3)c2)no1 (relative stereo) [Example 231, N-(5-methyl-1,2-oxazol-3-yl)-3-(trans-2-((tetrahydro-2H-pyran-4-ylmethyl)amino)cyclopropyl)benzamide] | > 7.00 | < 5.00 | 93.7 | 99.7 | 75.7 | 90.4 | 95.0 | 77.1 |  |  | < 5.00 | 527 | 4.5 | 117 | 
O=C(Nc1cnn(CC2CC2)c1)c1cccc([C@@H]2C[C@H]2NCC2CCOCC2)c1 (relative stereo) [Example 87, N-(1-(cyclopropylmethyl)-1H-pyrazol-4-yl)-3-(trans-2-((tetrahydro-2H-pyran-4-ylmethyl)amino)cyclopropyl)benzamide dihydrochloride] | > 7.00 | < 5.00 | 111.7 | 96.8 | 94.6 | 105.2 | 100.7 | 101.1 |  |  | < 5.00 | 43 |  | 251 | 
O=C(NC1CC(F)(F)C1)c1ccc(F)c([C@@H]2C[C@H]2NCC2CC2)c1 (relative stereo) [Example 240, 3-(trans-2-((cyclopropylmethyl)amino)cyclopropyl)-N-(3,3-difluorocyclobutyl)-4-fluorobenzamide hydrochloride] | > 7.00 | < 5.00 | 90.7 | 95.5 | 82.3 | 94.7 | 98.7 | 109.4 | 329 | 247 | < 5.00 |  |  |  | 1.31
O=C(Nc1ccc(N2CCCC2=O)cc1)c1cccc([C@@H]2C[C@H]2NCC2CC2)c1 (relative stereo) [Example 82, 3-(trans-2-((cyclopropylmethyl)amino)cyclopropyl)-N-(4-(2-oxopyrrolidin-1-yl)phenyl)benzamide hydrochloride] | > 7.00 | < 5.00 | 104.6 | 100.5 | 81.2 | 94.6 | 99.9 | 135.5 | 58 | 5610 | < 5.00 |  |  |  | 
Cn1cc(NC(=O)c2ccc(F)c([C@@H]3C[C@H]3NCC3CC3)c2)cn1 (relative stereo) [Example 237, 3-(trans-2-((cyclopropylmethyl)amino)cyclopropyl)-4-fluoro-N-(1-methyl-1H-pyrazol-4-yl)benzamide dihydrochloride] | > 7.00 | < 5.00 | 90.3 | 98.8 | 83.9 | 91.9 | 96.5 | 86.7 | 237 | 523 | < 5.00 |  |  |  | 
CN1CCC(N[C@@H]2C[C@H]2c2cccc(C(=O)NC3CCCC3)c2)CC1 (relative stereo) [Example 200, N-cyclopentyl-3-(trans-2-((1-methylpiperidin-4-yl)amino)cyclopropyl)benzamide dihydrochloride] | > 7.00 | < 5.00 |  |  |  |  |  |  |  |  | < 5.00 |  |  |  | 
O=C1COc2ccc(CN[C@@H]3C[C@H]3c3ccc(C(=O)NCc4ccccc4)cc3)cc2N1 (relative stereo) [Example 44, N-benzyl-4-(trans-2-(((3-oxo-3,4-dihydro-2H-1,4-benzoxazin-6-yl)methyl)amino)cyclopropyl)benzamide trifluoroacetate] | > 7.00 | 5.89 |  |  |  |  |  |  |  |  | < 5.00 |  |  |  | 
Cc1ncc(NC(=O)c2cccc([C@@H]3C[C@H]3NCC3CCOCC3)c2)s1 (relative stereo) [Example 90, N-(2-methyl-1,3-thiazol-5-yl)-3-(trans-2-((tetrahydro-2H-pyran-4-ylmethyl)amino)cyclopropyl)benzamide dihydrochloride] | > 7.00 | < 5.00 |  |  |  |  |  |  |  |  | < 5.00 |  |  |  | 
Cc1ncc(NC(=O)c2cccc([C@@H]3C[C@H]3NC3CCC(F)(F)CC3)c2)s1 (relative stereo) [Example 211, 3-(trans-2-((4,4-difluorocyclohexyl)amino)cyclopropyl)-N-(2-methyl-1,3-thiazol-5-yl)benzamide dihydrochloride] | > 7.00 | < 5.00 |  |  |  |  |  |  |  |  | < 5.00 |  |  |  | 
N#Cc1cccc(CNC(=O)c2ccc([C@@H]3C[C@H]3NCC3CC3)cc2)c1 (relative stereo) [Example 25, N-(3-cyanobenzyl)-4-(trans-2-((cyclopropylmethyl)amino)cyclopropyl)benzamide trifluoroacetate] | > 7.00 | < 5.00 |  |  |  |  |  |  |  |  | < 5.00 |  |  |  | 
COc1cccc(CN[C@@H]2C[C@H]2c2ccc(C(=O)NCc3ccccc3)cc2)c1 (relative stereo) [Example 37, N-benzyl-4-(trans-2-((3-methoxybenzyl)amino)cyclopropyl)benzamide trifluoroacetate] | > 7.00 | 5.35 |  |  |  |  |  |  |  |  | < 5.00 |  |  |  | 
Cc1cc(NC(=O)c2cccc([C@@H]3C[C@H]3NCC3CCOCC3)c2)on1 (relative stereo) [Example 92, N-(3-methyl-1,2-oxazol-5-yl)-3-(trans-2-((tetrahydro-2H-pyran-4-ylmethyl)amino)cyclopropyl)benzamide hydrochloride] | > 7.00 | < 5.00 |  |  |  |  |  |  |  |  | < 5.00 |  |  |  | 
CN1CCN(c2ccc(NC(=O)c3ccc([C@@H]4C[C@H]4NCC4CC4)cc3)cc2)CC1 (relative stereo) [Example 23, 4-(trans-2-((cyclopropylmethyl)amino)cyclopropyl)-N-(4-(4-methylpiperazin-1-yl)phenyl)benzamide tris(trifluoroacetate)] | > 7.00 | < 5.00 |  |  |  |  |  |  |  |  | < 5.00 |  |  |  | 
